Data set [1] has as its system Human endocervival adenocarcinoma (KB3.1). As to the kind of experiment: cells. The format is cell-based. Here is the method:
(§1) Serial dilution assays were performed in 96-well microtiter plates to determine the minimum inhibitory concentrations (MICs) against a panel of yeasts, filamentous fungi, and bacteria, as well as the half-maximal inhibitory concentrations (IC50) against human cell lines, following our previously described protocol ([Charria-Girón et al. 2023]).

The nature of data set [2]: Solubility in deuterated solvents (for NMR). The format is physicochemical. To be noted: observation during NMR sample preparation; deuterated solvents / deuterated DMSO.
The subject of data set [3] is Bacillus subtilis (DSM 10). Nature of the data set: microbe, parasite or virus in culture. The format is cell-based. Here is the method: as §1
Data set [4] has as its system Staphylococcus aureus (DSM 346). As to the kind of experiment: microbe, parasite or virus in culture. Type of data set: cell-based. Here is the method:
as §1

The subject of data set [5] is Mycobacterium smegmatis (ATCC 700084). Nature of the data set: MIC serial dilution assay. Type of data set: cell-based. To be noted: serial dilution in 96-well microtiter plates; tested up to 67 µg/mL. Here is the method:
as §1

The subject of data set [6] is Candida albicans (DSM 1665). Nature of the data set: MIC serial dilution assay. Particulars: serial dilution in 96-well microtiter plates; tested up to 67 µg/mL. The format is cell-based. Here is the method: as §1
For data set [7], the system named is Pseudomonas aeruginosa (PA14). As to the kind of experiment: MIC serial dilution assay. To be noted: serial dilution in 96-well microtiter plates; tested up to 67 µg/mL. Type of data set: cell-based. Here is the method: as §1
Data set [8] deals with Escherichia coli (DSM 1116). Nature of the data set: MIC serial dilution assay. The format is cell-based. Particulars: serial dilution in 96-well microtiter plates; tested up to 67 µg/mL. Here is the method:
as §1

For data set [9], the system named is Mucor hiemalis (DSM 2656). Nature of the data set: MIC serial dilution assay. The format is cell-based. Particulars: serial dilution in 96-well microtiter plates; tested up to 67 µg/mL. Here is the method: as §1
Another data set has as its system Mouse fibroblast (L929). Nature of the data set: Cytotoxicity assay. The format is cell-based. Particulars: serial dilution in 96-well plates.
The subject of data set [10] is Human ovarian cancer (SKOV-3). Nature of the data set: Cytotoxicity assay. Type of data set: cell-based. Particulars: serial dilution in 96-well plates. Here is the method:
as §1

Data set [11] relates to Human breast adenocarcinoma (MCF-7). As to the kind of experiment: Cytotoxicity assay. Particulars: serial dilution in 96-well plates. Type of data set: cell-based. Here is the method:
as §1

The subject of data set [12] is Human lung carcinoma (A549). The format is cell-based. Here is the method: as §1
Data set [13] concerns Human epidermoid carcinoma (A431). The format is cell-based. Here is the method: as §1
Data set [14] relates to Human prostate carcinoma (PC-3). Type of data set: cell-based. Here is the method: as §1
The subject of data set [15] is beet armyworm (Spodoptera exigua, Lepidoptera). As to the kind of experiment: Virulence of purified compounds against beet armyworm larvae (injection). The format is in vivo. Particulars: larvae injected with 0.5 µL of DMSO dilutions (40 to 0.625 µg/mL), n = 6 per concentration, 25 °C. Here is the method:
To evaluate the virulence of purified compounds against beet armyworm larvae, beauveriolides I (4) and M (5) were selected based on availability, and cytochalasin D served as a positive control. […] Larvae were injected with 0.5 µL of each dilution (n = 6 per concentration), maintained at 25 °C for one week, and monitored daily to assess mortality. Saline ([…]) and DMSO served as negative controls.
For proof of concept, beauveriolides I (4) and M (5) were selected based on availability and tested following the spore-suspension protocol but considering only total mortality, with cytochalasin D, a mycotoxin commonly produced by Metarhizium spp., used as a positive control ([Kobmoo et al. 2024]).

For data set [16] the following is noted: ref Namatame et al. 2004; cited from earlier work. From the text:
(§2) Our study highlights how amino acid substitutions modulate beauveriolides’ bioactivities. […] Thus, the amino acid at this position is crucial for bioactivity. The lack of antimicrobial activity in some beauveriolides, such as those containing HDA, further supports the hypothesis that these molecules may have different functions, such as facilitating insect pathogenicity rather than broad antimicrobial antagonism.

The test system of a further data set is macrophages. To be noted: ref Namatame et al. 2004; cited from earlier work.
From the text: as §2

The test system of data set [17] is Rhodotorula glutinis (DSM 10134). As to the kind of experiment: MIC serial dilution assay. To be noted: serial dilution in 96-well microtiter plates; tested up to 67 µg/mL. Type of data set: cell-based. Here is the method:
as §1

Data set [18] has as its system Acinetobacter baumannii (DSM 30008). Nature of the data set: MIC serial dilution assay. The format is cell-based. Particulars: serial dilution in 96-well microtiter plates; tested up to 67 µg/mL. Here is the method: as §1
For data set [19], the system named is Schizosaccharomyces pombe (DSM 70572). As to the kind of experiment: MIC serial dilution assay. Type of data set: cell-based. To be noted: serial dilution in 96-well microtiter plates; tested up to 67 µg/mL. Here is the method:
as §1

Data set [20] deals with Chromobacterium violaceum (DSM 30191). As to the kind of experiment: MIC serial dilution assay. The format is cell-based. Particulars: serial dilution in 96-well microtiter plates; tested up to 67 µg/mL. Here is the method: as §1
Data set [21] deals with Wickerhamomyces anomalus (DSM 6766). As to the kind of experiment: MIC serial dilution assay. Type of data set: cell-based. Particulars: serial dilution in 96-well microtiter plates; tested up to 67 µg/mL. Here is the method: as §1
The mark [22] stands for this setting: KB3.1, serial dilution in 96-well plates, read-out: IC50.
Setting [23] is: serial dilution in 96-well microtiter plates, tested up to 67 µg/mL.

Converted amounts (≈) assume the structure as drawn. Where two headings read alike, the source gives them in different places.

By IC50 is commonly meant the point on the concentration scale where inhibition reaches its midpoint. On to `CCCC[C@H](C)[C@@H]1CC(=O)N[C@@H](C)C(=O)N[C@@H](C)C(=O)N[C@H](CC(C)C)C(=O)O1` [Compound 3, Beauveriolide S], for which the IC50 (in [1] (setting [22]); in the data set on Mouse fibroblast (L929)) was more than 36.5 µM each time. Also, the “solubility in deuterated solvents” value in data set [2] is listed as “insoluble”. Besides, the MIC result in data set [3] (setting [23]) is listed as “n.i. (No inhibition up to 67 µg/mL)”; in data set [4] (DSM 346) it was 66.6 µg/mL (≈ 162 µM); in [5] it was “n.i. (No inhibition up to 67 µg/mL)”; in data set [6], “n.i. (No inhibition up to 67 µg/mL)”; in [7], “n.i. (No inhibition up to 67 µg/mL)”; in data set [8] it was “n.i. (No inhibition up to 67 µg/mL)”. The MIC result in data set [9] was “n.i. (No inhibition up to 67 µg/mL)”.

Consider `CCCC[C@H](C)[C@@H]1CC(=O)N[C@@H](Cc2ccccc2)C(=O)N[C@@H](C)C(=O)N[C@H](CC(C)C)C(=O)O1` [Compound 4, beauveriolide I], for which the IC50 in data set [1] was 13.3 µM; in data set [10], more than 36.5 µM; in data set [11], more than 36.5 µM; in data set [12], 0.9 µM; in [13], 1.2 µM; in data set [14], 3.5 µM. Moreover, in [15] (7-day period, concentration of the value not stated), the “total mortality (TM) in the last two days” value worked out at 67%. The “average total mortality (TM) over the first five days” value in data set [15] (concentration of the value not stated) was 33%. For the same compound, the MIC in data set [3] (DSM 10) was 66.6 µg/mL (≈ 137 µM); in data set [4] (DSM 346), 66.6 µg/mL (≈ 137 µM); in data set [5], “n.i. (No inhibition up to 67 µg/mL)”; in [6], “n.i. (No inhibition up to 67 µg/mL)”; in data set [7] it was “n.i. (No inhibition up to 67 µg/mL)”; in [8], “n.i. (No inhibition up to 67 µg/mL)”. In [9], the MIC entry was “n.i. (No inhibition up to 67 µg/mL)”. In addition, in data set [16], the “adverse outcomes in animal studies” value was “without adverse outcomes”. Moreover, the “antiatherogenic effects in macrophages” value in the data set with macrophages was “potent antiatherogenic effects”.

On to `CCCC[C@H](C)[C@@H]1CC(=O)N[C@@H](C(C)C)C(=O)N[C@@H](C)C(=O)N[C@H](CC(C)C)C(=O)O1` [Compound 5, beauveriolide M], for which the IC50 (in data set [1] (setting [22]); in the data set on Mouse fibroblast (L929)) was more than 36.5 µM each time. Moreover, in data set [15] (total mortality), the “insecticidal activity over 7 days” value is on record as “no insecticidal”. Also, the MIC result in [3] (setting [23]), in data set [4] (setting [23]), in [5], in data set [6], in data set [7] and in data set [8] was “n.i. (No inhibition up to 67 µg/mL)” in each case.

In the case of Beauveriolide III [reference compound], the “adverse outcomes in animal studies” value in data set [16] is on record as “without adverse outcomes”. Moreover, the “antiatherogenic effects in macrophages” value in the data set with macrophages was “potent antiatherogenic effects”.

Turning to Beauveriolide Q [Compound 1], the IC50 (in data set [1] (setting [22]); with Mouse fibroblast (L929)) was more than 36.5 µM throughout. Moreover, the “solubility in deuterated solvents” value in data set [2] is “poor solubility”. Further, the MIC result in data set [3] (setting [23]), in [4] (setting [23]), in [5], in data set [17], in data set [6] and in data set [7] was “n.i. (No inhibition up to 67 µg/mL)” in each case. For the same compound, the MIC result in [18], in data set [19], in [8], in data set [20], in data set [21] and in data set [9] was “n.i. (No inhibition up to 67 µg/mL)” throughout.

For Beauveriolide R [Compound 2], the IC50 (in data set [1] (setting [22]); with Mouse fibroblast (L929)) was more than 36.5 µM each time. The “solubility in deuterated solvents” value in data set [2] is reported as “soluble”. The MIC entry in data set [3] (setting [23]), in data set [4] (setting [23]), in [5], in data set [17], in data set [6] and in data set [7] was “n.i. (No inhibition up to 67 µg/mL)” throughout. Further, the MIC entry in data set [18], in data set [19], in data set [8], in data set [20], in data set [21] and in data set [9] was “n.i. (No inhibition up to 67 µg/mL)” in each case.

These data come from PMC12717519, “Chemical clues to infection: A pilot study on the differential secondary metabolite production during the life cycle of selected Cordyceps species” (IMA Fungus, 2025).
